Laboratory results taken from PubChem BioAssay AID792 (PCMD, 2007).
Inconclusive results are not listed. Calls of active or inactive are those of the source. The rule behind the calls is not given here.

Biological target: S. cerevisiae eIF2B mutant, luciferase reporter luminescence
Experiment: eIF2B reporter inhibitors in yeast strains, dose response, S. cerevisiae, mutant, wild-type, luminescence, growth (AID 792)
[1] = measured here: mutant yeast growth

| SMILES | IC50 | IC50 [1] | IC50 (S. cerevisiae wild-type, luminescence) |
| --- | --- | --- | --- |
| O=C(c1c[nH]c2ccc(S(=O)(=O)N3CCOCC3)cc2c1=O)N1CCCC1 | > 100 µM (inactive) | > 100 µM | – |
| CC(C)OC(=O)CCc1nc2ccccc2[nH]c1=O | > 100 µM (inactive) | > 100 µM | – |
| CC(=O)c1cccc(-n2nnnc2SCC(=O)Nc2cccc(NC(=O)c3ccco3)c2)c1 | > 100 µM (inactive) | > 100 µM | – |
| Cc1cccc2cc3c(NC(=O)c4ccccn4)nn(C)c3nc12 | > 100 µM (inactive) | 64.2 µM | – |
| CCOC(=O)Cc1csc(NC(NC(=O)CC)(C(F)(F)F)C(F)(F)F)n1 | > 100 µM (inactive) | > 100 µM | – |
| CCCOc1ccc(N2C(=O)CC(SC(=NCC)Nc3cccc(F)c3)C2=O)cc1 (configuration not stated) | > 100 µM (inactive) | > 100 µM | – |
| CCCOc1ccc(C(=O)N2CCCc3ccccc32)cc1 | > 100 µM (inactive) | > 100 µM | – |
| Cc1cc(C(=O)Nc2sc3c(c2C#N)CCC(C)C3)no1 (configuration not stated) | > 100 µM (inactive) | > 100 µM | – |
| CC(C)C1Oc2ccccc2N(CC(=O)N(Cc2ccccn2)CC2CCCO2)C1=O (configuration not stated) | > 100 µM (inactive) | > 100 µM | – |
| Cc1ccc(C)c(N=C2CCCN2Cc2ccccc2)c1C#N | > 100 µM (inactive) | > 100 µM | – |
| O=C(Nc1ccc(Sc2ccc(Br)cc2)cc1)c1ccco1 | > 100 µM (inactive) | > 100 µM | – |
| COCc1cc(=O)[nH]c(Nc2nc3ccc(C)cc3o2)n1 | > 100 µM (inactive) | > 100 µM | – |
| Cn1c(=O)n(CC(=O)N2CCC3(CC2)OCCO3)c(=O)c2ccccc21 | > 100 µM (inactive) | > 100 µM | – |
| Cc1cc(C)n(-c2cc(C(C)(C)C)nc3c(-c4ccc(Cl)cc4)cnn23)n1 | > 100 µM (inactive) | > 100 µM | – |
| O=C(Oc1ccc2c(c1)CCC2)N1CCOCC1 | > 100 µM (inactive) | > 100 µM | – |
| COc1ccc(C(=O)Nn2c(C)nnc2-n2nc(C)cc2C)cc1OC | > 100 µM (inactive) | > 100 µM | – |
| CCn1c(Cc2ccccc2)nnc1SCC(=O)Nc1nnc(-c2ccccc2)s1 | > 100 µM (inactive) | > 100 µM | – |
| COc1ccc(C2NC(=O)NC(C)=C2C(C)=O)cc1 (configuration not stated) | > 100 µM (inactive) | > 100 µM | – |
| O=C(CSc1nnc(-c2ccccn2)n1-c1ccccc1)Nc1ccc2c(c1)OCO2 | > 100 µM (inactive) | > 100 µM | – |
| CC(C)(C)SCCNC(=O)c1ccc(Cl)c(S(=O)(=O)N2CCOCC2)c1 | > 100 µM (inactive) | > 100 µM | – |

| SMILES | IC50 | IC50 [1] | IC50 (S. cerevisiae wild-type, luminescence) |
| --- | --- | --- | --- |
| COc1ccc(NC(=O)N2CCc3ccccc32)cc1 | inactive | > 100 µM | 6.14 µM |
| O=C(CSc1nccc(=O)[nH]1)N1CCCc2ccccc21 | > 100 µM (inactive) | > 100 µM | – |
| COc1ccc(OC)c(N(CC(=O)Nc2ccc(NC(C)=O)cc2)S(C)(=O)=O)c1 | > 100 µM (inactive) | > 100 µM | – |
| Cc1csc(NC(=O)NC2(C(F)(F)F)Oc3ccccc3O2)n1 | > 100 µM (inactive) | > 100 µM | – |
| N#Cc1cc2ccccc2nc1SCc1cccnc1 | > 100 µM (inactive) | > 100 µM | – |
| COc1cccc(C(=O)Nc2cccc(C(=O)N3CCOCC3)c2)c1 | > 100 µM (inactive) | > 100 µM | – |
| COC(=O)CSc1nnc2n(-c3ccc(OC)cc3)c(=O)c3c4c(sc3n12)CCCCC4 | > 100 µM (inactive) | 87.1 µM | – |
| C=CCNc1nc(-c2cccc(OC)c2O)nc2ccccc12 | > 100 µM (inactive) | > 100 µM | – |
| Cn1ncc(C#N)c1/N=C/N1CCOCC1 | > 100 µM (inactive) | > 100 µM | – |
| CCCCCn1c(SCC(=O)OCC)nc2cc(C(=O)NCc3ccco3)ccc2c1=O | > 100 µM (inactive) | > 100 µM | – |
| Cc1cc(NC(=O)CN2CCCC(C)C2)n(-c2nc3ccccc3s2)n1 (configuration not stated) | > 100 µM (inactive) | > 100 µM | – |
| CC(C)Oc1ccc(C(=O)O)c(C(=O)O)c1 | > 100 µM (inactive) | > 100 µM | – |
| CCCc1nc(SCC(=O)Nc2cc(C)on2)c2ccccc2n1 | > 100 µM (inactive) | > 100 µM | – |
| CCC(C)(C)n1nnnc1CN(Cc1cccs1)Cc1cc2cc(OC)ccc2[nH]c1=O | > 100 µM (inactive) | > 100 µM | – |
| COc1ccccc1Nc1nc(C)cc(C)c1C(N)=O | > 100 µM (inactive) | > 100 µM | – |
| Cc1ccc(-c2nnc3ccc(SCC(=O)NCc4ccco4)nn23)cc1 | > 100 µM (inactive) | > 100 µM | – |
| CCC(C)N(C(=O)COC(=O)c1[nH]c(C)c(C(C)=O)c1C)C1CCS(=O)(=O)C1 (configuration not stated) | > 100 µM (inactive) | > 100 µM | – |
| CCOC(=O)c1c(-c2ccco2)csc1NC(=O)CSc1nnc(N)s1 | > 100 µM (inactive) | > 100 µM | – |
| C=CCc1c(C)nc(SC(C)C)[nH]c1=O | > 100 µM (inactive) | > 100 µM | – |
| O=C(CCSc1nnc(-c2ccco2)o1)Nc1ccc(Cl)cc1 | > 100 µM (inactive) | > 100 µM | – |

| SMILES | IC50 | IC50 [1] | IC50 (S. cerevisiae wild-type, luminescence) |
| --- | --- | --- | --- |
| CC(NC(=O)Nc1ccc(F)cc1F)c1ccncc1 (configuration not stated) | > 100 µM (inactive) | > 100 µM | – |
| Cc1ccc(N2CC(C(=O)Nc3ccccc3C(=O)NC3CCCCC3)CC2=O)cc1C (configuration not stated) | > 100 µM (inactive) | > 100 µM | – |
| COC(=O)[C@H](Cc1ccccc1)NC(=O)NCc1ccccc1OC | > 100 µM (inactive) | > 100 µM | – |
| O=C(c1ccccc1)N1CCN(C(=O)c2ccncc2)CC1 | > 100 µM (inactive) | > 100 µM | – |
| COc1ccc2c(c1)CCc1c(C(=O)NCc3cccnc3)noc1-2 | > 100 µM (inactive) | > 100 µM | – |
| CC(C)c1[nH]c(=O)c(C#N)c2c1COC(C)(C)C2 | > 100 µM (inactive) | > 100 µM | – |
| CCC(C)(C(=O)NC1CCCCC1)N(Cc1ccco1)C(=O)c1ccc2c(c1)OCO2 (configuration not stated) | > 100 µM (inactive) | > 100 µM | – |
| CC1(C)CC(=O)c2cc(OCC(=O)NCCCN3CCN(c4ccccc4F)CC3)ccc2O1 | > 100 µM (inactive) | > 100 µM | – |
| O=C(Nc1ccc2nc(-c3ccc4nc[nH]c4c3)[nH]c2c1)c1cccs1 | > 100 µM (inactive) | > 100 µM | – |
| Cn1c(CNc2ccccc2)cc(=O)n(C)c1=O | > 100 µM (inactive) | > 100 µM | – |
| CCOC(=O)C1=C(C)NC(C)=C(C(=O)OCC)C1C(=O)OCC(=O)N1CCc2ccccc2C1 | > 100 µM (inactive) | > 100 µM | – |
| CN1CCc2nc(SCC(=O)Nc3ccc(Cl)cc3)c(C#N)cc2C1 | > 100 µM (inactive) | > 100 µM | – |
| C=CCN1CC(c2nc3ccccc3n2Cc2cccc3ccccc23)CC1=O (configuration not stated) | > 100 µM (inactive) | > 100 µM | – |
| Cc1ccc2nc(/C(C#N)=C\c3ccc(N4CCOCC4)o3)[nH]c2c1 | > 100 µM (inactive) | > 100 µM | – |
| CC(C)C(=O)N1CCN(C2=NS(=O)(=O)c3ccccc32)CC1 | > 100 µM (inactive) | > 100 µM | – |
| Nc1ccc2oc(CCc3ccccc3)nc2c1 | > 100 µM (inactive) | > 100 µM | – |
| COc1cccc(-n2ccnc2SCC(=O)Nc2cc(OC)ccc2OC)c1 | > 100 µM (inactive) | > 100 µM | – |
| COC(=O)Cn1c2ccc(OC)cc2c2nc3ccccc3nc21 | > 100 µM (inactive) | > 100 µM | – |
